Data set [1] deals with guinea pig trachea. Briefly: relaxation of the spontaneous tonus of the isolated guinea pig trachea (tracheal spiral) in vitro. Conditions: for relaxation of the spontaneous tonus of the guinea pig trachea in vitro: guinea pig trachea / tracheal spiral, result in words. The protocol:
The new compounds of Formulas III and IV are also considered part of the present invention since they are useful as intermediates for the production of the substances of Formula I. Some of the substances of Formulas III and IV also have biological utility in addition to their utility as intermediates. […] It is 13.2 times as potent as theophylline in relaxing the spontaneous tonus of the isolated guinea pig tracheal spiral. […] In both instances, the drug was administered orally.

The subject of data set [2] is passive cutaneous anaphylaxis reaction (PCA). Briefly: passive cutaneous anaphylaxis reaction (PCA) in the rat. The format is in vivo. Conditions: for ED50 / PCA Response, percent inhibition at the dose specified: rat; for ED50: read-out: PCA Response, ED 50; for antiallergic activity: rat PCA, result in words. The protocol:
Twelve days after injection, the serum is collected and the antibody titer is determined. The sera which contain sufficient antibody to cause a 10 mm. spot in the dorsal skin of the rat in the PCA test after a 10-fold dilution are pooled. […] The selected reaginic anti-sera are stored frozen until use. For carrying out the test, groups of 5 to 10 male Sprague-Dawley (Carworth Farms) rats, each rat weighing 100-150 g., are used. Forty-eight hours prior to the test, the animals are passively sensitized by intradermal injection of 0.1 ml. of the above diluted antiserum at various locations on the shaved skin of the back. A dilution of antiserum is used so that a spot following challenge of 20-25 mm. in diameter is obtained. Challenge consists of an intravenous injection of 25 mg./kg. of body weight of egg albumin and a like amount of Evan's blue dye in saline. […] A latent period of 48 hrs. is allowed before the animals are treated with the test drug administered by either intraperitoneal or intravenous injection or orally by gavage. Challenge as described above is given 15 min. subsequent to treatment with the test drug. The response to the antigen challenge in the sensitized localities on the skin is an increased capillary permeability and leakage of the blue dye into the area surrounding the sensitized site. The PCA response is scored by measuring the mean spot diameter on the excised and reversed skin 20-30 min. after challenge. In each experiment a group of control animals receiving no drug is employed. The percent inhibition of the PCA is calculated by determining the mean diameters of the spots in the control and treated animals and computing the difference between the squares of the mean diameters of the control animals and the treated animals and expressing this difference as a percentage of the square of the mean diameter of the control animals. Results are expressed as percent inhibition. […] In other modifications, various time intervals are allowed between drug treatment and challenge to ascertain the duration of drug effect.

Data set [3] is described as follows: in vivo. As to conditions: po, rat, treated orally, read-out: approximate LD50.

Like-named read-outs stand apart in the source and are kept apart here.

Consider `Cc1csc(NC=C(C#N)C#N)n1` [Example 5, 2-[[(4-methylthiazol-2-yl)amino]methylene]propanedinitrile], for which the “relaxation of the spontaneous tonus of the guinea pig trachea in vitro” value (“relaxation” below) in data set [1] is given as “substantial tracheal relaxant action”. Besides, in data set [1] (isolated guinea pig tracheal spiral), the “potency relative to theophylline in relaxing the spontaneous tonus of the isolated guinea pig tracheal spiral” value is listed as 13.2 times as potent as theophylline.

In the case of `N#CC(=CNc1nc2ccccc2s1)c1nnn[nH]1` [Example 14, N-[2-Cyano-2-(1H-tetrazol-5-yl)ethenyl]-benzothiazol-2-amine], the ED50 in data set [2] (po, p.o.) amounted to 32 mg/kg. In addition, in data set [2], the antiallergic activity result is “antiallergic activity similar to those substances of Formula I”. For `N=c1c(-c2nnn[nH]2)cnc2[nH]cnn12` [Example 15, 3,7-Dihydro-6-(1H-tetrazol-5-yl)-s-triazolo-[1,5-a]pyrimidin-7-imine], in data set [1], the “relaxation” value was “inactive”. Further, the “PCA Response, percent inhibition at the dose specified” value (“PCA Response, percent inhibition” for short) in data set [2] (10 mg/kg, p.o.) is listed as 36.1%. `Cc1csc(NC=C(C#N)c2nnn[nH]2)n1` [Example 17, 3-[(4-Methylthiazol-2-yl)amino]-2-(1H-tetrazol-5-yl)-2-propenenitrile]: the antiallergic activity result in data set [2] is on record as “antiallergic activity similar to those substances of Formula I”. Further, the “PCA Response, percent inhibition” value in data set [2] (25 mg/kg, p.o.) stood at 36.7%.

On to `N=c1c(-c2nnn[nH]2)cnc2sccn12` [Example 22, 6-(1H-Tetrazol-5-yl)-5H-thiazole[3,2-a]-pyrimidine-5-imine], for which the “PCA Response, percent inhibition” value in data set [2] (10 mg/kg, p.o.) is 22.4%. As to `Cl.N=c1c(-c2nnn[nH]2)cnc2sc3ccccc3n12` [Example 23, 3-(1H-Tetrazol-5-yl)-4H-pyrimido[2,1-b]-benzothiazol-4-imine Hydrochloride], the “relaxation” value in data set [1] is “cause relaxation”. Also, in data set [2] (po, p.o.), the ED50 turned out to be 2.9 mg/kg. For `O=c1c(-c2nnn[nH]2)cnc2sc3ccccc3n12` [Example 24, 3-(1H-Tetrazol-5-yl)-4H-pyrimido[2,1-b]-benzothiazol-4-one], the “relaxation” value in data set [1] is given as “cause relaxation”. Also, the LD50 in data set [3] lay within 2000 to 5000 mg/kg. Also, the ED50 in data set [2] (iv, i.v.) worked out at 0.0049 mg/kg; in data set [2] (po, p.o.) it was 0.064 mg/kg.

For the molecule `Cc1cc(C)c2sc3ncc(-c4nnn[nH]4)c(=O)n3c2c1` [Example 25, 7,9-Dimethyl-3-(1H-tetrazol-5-yl)-4H-pyrimido[2,1-b]benzothiazol-4-one], the “relaxation” value in data set [1] is “cause relaxation”.

Take `Cc1csc2ncc(-c3nnn[nH]3)c(=O)n12` [Example 28, 3-Methyl-6-(1H-tetrazol-5-yl)-5H thiazolo[3,2-a]pyrimidine-5-one]: in data set [1], the “relaxation” value is “cause relaxation”. In addition, in data set [2] (25 mg/kg, p.o.), the “PCA Response, percent inhibition” value amounted to 39%. Consider `COc1ccc2c(c1)sc1ncc(-c3nnn[nH]3)c(=O)n12` [Example 31, 8-Methoxy-3-(1H-tetrazol-5-yl)-4H-pyrimido-[2,1-b]benzothiazol-4-one], for which the “relaxation” value in data set [1] was “cause relaxation”. In addition, in data set [2] (po, p.o.), the ED50 came out at 1.88 mg/kg. On to `Cc1cc2sc3ncc(-c4nnn[nH]4)c(=O)n3c2cc1C` [Example 32, 7,8-Dimethyl-3-(1H-tetrazol-5-yl)-4H-pyrimido[2,1-b]benzothiazol-4-one], for which the “relaxation” value in data set [1] is “cause relaxation”. Further, in data set [2] (25 mg/kg, p.o.), the “PCA Response, percent inhibition” value came out at 34.9%. In the case of `O=c1c(-c2nnn[nH]2)cnc2sccn12` [Example 33, 6-(1H-Tetrazol-5-yl)-5H-thiazolo[3,2-a]-pyrimidin-5-one], the “PCA Response, percent inhibition” value in data set [2] (10 mg/kg, p.o.) was 57%.

(Values after patent publication US4223031A, “Azolopyrimidinones” (priority 1978, dated 1980).)
